From patent US12503444B2, “Compound containing benzene ring and application thereof” (WUHAN LL SCIENCE AND TECHNOLOGY DEVELOPMENT CO., LTD., priority 2019, dated 2025) come the findings set out here.

For data set [1], the target named is T1, hP2X4 (human purinergic P2X receptor subtype 4) (Homo sapiens, UniProt Q99571).
T1 sequence (Q99571 1-404 isoform Q99571-2): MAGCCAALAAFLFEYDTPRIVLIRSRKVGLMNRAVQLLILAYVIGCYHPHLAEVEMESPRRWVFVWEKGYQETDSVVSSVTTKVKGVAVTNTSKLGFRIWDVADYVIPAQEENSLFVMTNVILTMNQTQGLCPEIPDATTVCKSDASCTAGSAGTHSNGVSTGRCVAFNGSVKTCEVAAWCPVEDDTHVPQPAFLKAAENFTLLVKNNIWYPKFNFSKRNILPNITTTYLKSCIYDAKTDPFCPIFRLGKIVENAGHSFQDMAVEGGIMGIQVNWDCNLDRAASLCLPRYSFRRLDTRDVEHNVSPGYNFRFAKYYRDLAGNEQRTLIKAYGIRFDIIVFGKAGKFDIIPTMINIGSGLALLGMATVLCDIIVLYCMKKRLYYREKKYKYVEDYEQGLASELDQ
Nature of the data set: FLIPR assay of intracellular calcium increase induced by activation of hP2X4 expressed in HEK293 cells (agonist BZ-ATP 2.5 μM). The class given is cell-based. The settings on record: HEK293 cells stably expressing hP2X4, FLIPR, read-out: P2X4 IC50. Put shortly: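 HEK293 cells stably expressing hP2X4, loaded with Calcium 6 dye for 1.5 h at 37° C, then preincubated with compound 30 min at room temperature.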

The nature of data set [2]: In vitro metabolic stability, liver microsome incubation (human). In kind it is in vitro ADME. The settings on record: 1 mg/mL liver microsome protein, 37° C.; for half-life: human, liver microsomes, read-out: T1/2 in human liver microsome min. The method, then:
(§1) The in vitro metabolic stability of the compounds disclosed herein was determined through incubation of liver microsomes of various species. A proper amount of test compound was added into a liver microsome reaction system (1 mg/mL liver microsome protein, 25 U/mL glucose-6 phosphate dehydrogenase, 1 mM NADP, 6 mM D-glucose 6-phosphate and 5 mM MgCl2), and then the mixture was incubated in a water bath kettle at 37° C. to start the reaction. At each time point, 100 μL of the reaction system was added into a centrifuge tube containing 400 μL of internal standard working solution (containing a 200 ng/mL solution of dexamethasone, diclofenac, tolbutamide and labetalol in acetonitrile) precooled at 0° C. so as to stop the reaction, and the mixture was then centrifuged at 10,000 g for 10 min at 4° C. The supernatant was collected for LC-MS assay so as to obtain the values of in vitro metabolic half-life of the test compounds in liver microsomes of various species.

Data set [3] is described as follows: In vitro metabolic stability, liver microsome incubation (rat). The class given is in vitro ADME. The conditions noted are these: 1 mg/mL liver microsome protein, 37° C.; for half-life: rat, read-out: T1/2 in rat liver microsome min. The method, then:
as §1
On the technique in general: Microsomes from liver hold many membrane-bound enzymes, among them those of drug oxidation.

Data set [4] in a line: In vitro metabolic stability, liver microsome incubation (guinea pig). The class given is in vitro ADME. The settings on record: 1 mg/mL liver microsome protein, 37° C.; for half-life: guinea pig, liver microsomes, read-out: T1/2 in guinea pig liver microsome min. The procedure: as §1
A short description of data set [5]: In vitro cytotoxicity assay in HepG2 cells, CCK-8 method. The conditions noted are these: human. A general note: Formazan colour is commonly taken as a measure of viable cells.
Experimental: (§2) In vitro cytotoxicity assay for the compounds disclosed herein was performed in HepG2 cells using the CCK-8 method. HepG2 cells (Beina Bio) in the logarithmic growth phase were collected, the concentration of cell suspension was adjusted, and then the cells were plated on a 96-well cell culture plate at 50,000 cells/well. The cells were then incubated overnight in a cell incubator (5%/humidity, 37° C.), and after 80-90% cell confluence was achieved, test compounds or vehicle (DMSO) at various concentration gradients were added after medium change. The resulting mixture was incubated in the cell incubator (5% humidity, 37° C.) for 48 h. After the treatment, the medium in the plate was discarded. The plate was washed twice with PBS, added with CCK-8 working solution (Beyotime) at 100 μL per well, and then incubated at 37° C. for 1.5 h away from the light. Absorbance at OD450 nm was measured for each well on a microplate reader, and CC50 value of each compound was analyzed and calculated.
The subject of data set [6] is HepG2 cells.
Experimental: as §2
For data set [7], the system named is HepG2 cells. Briefly: In vitro cytotoxicity assay in HepG2 cells, CCK-8 method. The settings on record: read-out: HepG2 CC50, 48 h, CCK-8.
Experimental: as §2
Data set [8] deals with Male Dunkin Hartley guinea pigs. Nature of the data set: Citric acid only cough model in guinea pigs. In kind it is in vivo. The settings on record: guinea pig; for Cough inhibition rate Vs vehicle (%) / Cough latency / Mean number of coughs / Cough inhibition rate Vs baseline (%): 17.5% citric acid; for Cough inhibition rate Vs baseline (%): before vs after administration. The method, then:
Male Dunkin Hartley guinea pigs (300-350 g) were placed in an animal atomization box, and then the door of the atomization box was closed while the ultrasonic atomizer (Guangdong Yuehua) was turned on. 17.5% citric acid gas was introduced into the atomization box at a maximum atomization rate (about 2 mL/min) for 20 s, and coughs of the animals within 10 min were continuously observed from the time of the start of atomization. During the 10-min observation, coughs of the animals needed to be counted manually, and the number of coughs were judged according to cough postures of the guinea pigs, such as abdominal twitching, mouth opening, and head inclining downward abruptly. The number of coughs during the first 5 min and that during 10 min were recorded, and the cough latency of the guinea pigs, namely the time from the initiation of citric acid induction to the appearance of the 1st cough, was also recorded.
Cough inhibition rate Vs vehicle represents the percentage of reduction
[formula] in the number of coughs in the administration group compared to the vehicle group upon citric acid challenge; Cough inhibition rate Vs baseline represents the percentage of reduction
[formula] in the number of coughs in the administration group before and after administration.

The mark [9] stands for this setting: 20 mg/kg group, before administration (baseline).
Setting [10] is: 60 mg/kg group, before administration (baseline).

Like-named read-outs stand apart in the source and are kept apart here. Bounds are passed on as bounds.

Consider `NS(=O)(=O)c1cc(NC(=O)Cc2ccccc2Cl)cc2c1cnn2-c1ccc(F)cc1` [Compound 44, 2-(2-chlorophenyl)-N-(1-(4-fluorophenyl)-4-sulfamoyl-1H-indazol-6-yl)acetamide], for which the IC50 in data set [1] (numeric values) was 36.8 nM. The half-life was 5.08 h in data set [2], 1.53 h in data set [3] (microsomes) and 1.2 h in data set [4].
Take `NS(=O)(=O)c1cc(NC(=O)Cc2ccccc2Cl)cc2c1cnn2CC1CCC1` [Compound 24-B, 2-(2-chlorophenyl)-N-(1-(cyclobutylmethyl)-4-sulfamoyl-1H-indazol-6-yl)acetamide]: in data set [1] (class symbols), the 50% inhibitory concentration (IC50) was no more than 10 nM. In addition, the half-life in data set [2] was determined as 1.84 h; in data set [3] (liver microsomes) it was 0.768 h; in data set [4], 2.41 h. Further, the CC50 at 48 h in data set [5] is greater than 200000 nM.
For the compound `CC(C)CCn1ncc2c(S(N)(=O)=O)cc(NC(=O)Cc3ccccc3Cl)cc21` [Compound 8-B, 2-(2-chlorophenyl)-N-(1-isopentyl-4-sulfamoyl-2H-indazol-6-yl)acetamide], the IC50 in data set [1] (numeric values) was determined as 0.38 nM. In data set [2], the “T1/2 in human liver microsome min” value turned out to be 0.4488 h. In the data set on HepG2 cells [6], this compound came in with a CC50 greater than 200000 nM.
As to `N#Cc1ccc(Cn2cc3c(S(N)(=O)=O)cc(NC(=O)Cc4ccccc4Cl)cc3n2)cc1` [Compound 91, 2-(2-chlorophenyl)-N-(2-(4-cyanobenzyl)-4-sulfamoyl-2H-indazol-6-yl)acetamide], the IC50 in data set [1] (class symbols) was no more than 10 nM. In addition, the half-life turned out to be 3.23 h in data set [2], 1.84 h in data set [3] (liver microsomes) and 0.809 h in data set [4]. Besides, the CC50 at 48 h in data set [5] was greater than 200000 nM.
Take `COc1ccc(CN(Cc2ccc(OC)cc2)S(=O)(=O)c2cc(NC(=O)Cc3ccccc3Cl)cc3c2cnn3Cc2ccc(C#N)cc2)cc1` [Compound 91A, N-(4-(N,N-bis(4-methoxybenzyl)sulfamoyl)-1-(4-cyanobenzyl)-1H-indazol-6-yl)-2-(2-chlorophenyl)acetamide]: in data set [1] (class symbols), the IC50 was no more than 10 nM. Moreover, in data set [2], the “T1/2 in human liver microsome min” value was determined as 1.6827 h. The “T1/2 in rat liver microsome min” value in data set [3] is 2.0857 h. The “T1/2 in guinea pig liver microsome min” value in data set [4] came out at 1.424 h. For the same compound, in the data set with HepG2 cells [7], the CC50 was greater than 200000 nM.
For the compound `NS(=O)(=O)c1cc(NC(=O)Cc2ccccc2Cl)cc2nn(Cc3ccc(F)cc3)cc12` [Compound 88, 2-(2-chlorophenyl)-N-(2-(4-fluorobenzyl)-4-sulfamoyl-2H-indazol-6-yl)acetamide], the IC50 in data set [1] (class symbols) is no more than 10 nM. Also, the half-life in data set [2] amounted to 8.54 h; in data set [3] (liver microsomes), 2.07 h; in data set [4], 2 h. This compound yielded a cytotoxic concentration (CC50) at 48 h in data set [5] greater than 200000 nM.
For the compound `CCCn1ncc2c(S(N)(=O)=O)cc(NC(=O)Cc3ccccc3Cl)cc21` [Compound 5-B, 2-(2-chlorophenyl)-N-(1-propyl-4-sulfonylamino-1H-indazol-6-yl)acetamide], in data set [1] (numeric values), the IC50 is 2.2 nM. In addition, in data set [2], the “T1/2 in human liver microsome min” value is 1.094 h. Moreover, the cytotoxic concentration (CC50) in the data set with HepG2 cells [6] is greater than 200000 nM.
As for `NS(=O)(=O)c1cc(NC(=O)Cc2ccccc2Cl)cc2nc(-c3ccccc3)[nH]c12` [Compound 53, 2-(2-chlorophenyl)-N-(2-phenyl-7-sulfamoyl-1H-benzo[d]imidazol-5-yl)acetamide], the 50% inhibitory concentration (IC50) in data set [1] (class symbols) was 200 to 5000 nM. For the same compound, the results for the half-life in data set [2], in data set [3] (liver microsomes) and in data set [4] were 3.79 h, 0.753 h and 0.154 h, respectively.
For the compound `NS(=O)(=O)c1cc(NC(=O)Cc2ccccc2Cl)cc2nn(C(F)F)cc12` [Compound 1, 2-(2-chlorophenyl)-N-(2-(difluoromethyl)-4-sulfamoyl-2H-indazol-6-yl)acetamide], the 50% inhibitory concentration (IC50) in data set [1] (numeric values) was found to be 29.1 nM. Moreover, the “Effect on number of coughs and cough latency (in words)” value in data set [8] (20 mg/kg and 60 mg/kg, compared with vehicle group or before administration) is “reduce the number of coughs and prolong the cough latency in a dose-dependent manner”; in data set [8] (60 mg/kg, no significant difference from dextromethorphan at the same dosage), “significant improvement effect”. The figures for the “Cough inhibition rate Vs vehicle (%)” value in data set [8] (20 mg/kg) and in data set [8] (60 mg/kg) were 20.59% and 46.75%, respectively. The “Cough latency” value in data set [8] (setting [9]) was found to be 94.29 s; in data set [8] (20 mg/kg, after administration), 214.29 s; in data set [8] (setting [10]), 84.88 s; in data set [8] (60 mg/kg, after administration) it was 221.75 s. The “Mean number of coughs” value came to 18.57 in data set [8] (setting [9]); 15.29 in data set [8] (20 mg/kg, after administration); 18.50 in data set [8] (setting [10]); 10.25 in data set [8] (60 mg/kg, after administration). In addition, the “Cough inhibition rate Vs baseline (%)” value was 17.69% in data set [8] (20 mg/kg) and 44.59% in data set [8] (60 mg/kg). Further, the half-life in data set [2] was determined as 11.5 h; in data set [3] (liver microsomes), 6.03 h; in data set [4] it was 2.58 h. Moreover, the half-maximal cytotoxic concentration (CC50) at 48 h in data set [5] was greater than 200000 nM.
In the case of `NS(=O)(=O)c1cc(NC(=O)Cc2ccccc2Cl)cc2n[nH]cc12` [Compound 2, 2-(2-chlorophenyl)-N-(4-sulfamoyl-2H-indazol-6-yl)acetamide], in data set [1] (numeric values), the IC50 worked out at 5.4 nM. In addition, the figures for the half-life in data set [2], in data set [3] (liver microsomes) and in data set [4] were 2.57 h, 0.809 h and 3.54 h, respectively. In data set [5], this compound yielded a cytotoxic concentration (CC50) at 48 h greater than 200000 nM.
Turning to `CCCn1cc2c(S(N)(=O)=O)cc(NC(=O)Cc3ccccc3Cl)cc2n1` [Compound 5-A, 2-(2-chlorophenyl)-N-(2-propyl-4-sulfonylamino-2H-indazol-6-yl)acetamide], the concentration for half-maximal inhibition (IC50) in data set [1] (numeric values) turned out to be 5.24 nM. In addition, the results for the half-life in data set [2], in data set [3] (liver microsomes) and in data set [4] were 5.96 h, 2.37 h and 0.0978 h, respectively. The same compound returned a CC50 at 48 h in data set [5] greater than 200000 nM.
On to `CC(C)Cn1ncc2c(S(N)(=O)=O)cc(NC(=O)Cc3ccccc3Cl)cc21` [Compound 7-B, 2-(2-chlorophenyl)-N-(1-isobutyl-4-sulfamoyl-2H-indazol-6-yl)acetamide], for which the IC50 in data set [1] (numeric values) stood at 2.33 nM. For the same compound, the “T1/2 in human liver microsome min” value in data set [2] came to 0.5413 h. In the data set with HepG2 cells [6], this compound yielded a 50% cytotoxic concentration (CC50) of 150000 nM.

By IC50 is commonly meant the concentration that inhibits the measured activity by half. One may read the CC50 as the concentration at which the toxic effect on the cells reaches its halfway point.
